We go through 29 compounds from US11285135B2 (AMGEN INC., priority 2016, dated 2022).

GDP-bound protein (aa 1-169), containing both G12C and C118A amino acid substitutions, sequence (P01116 1-169 isoform P01116-2 G12C/C118A): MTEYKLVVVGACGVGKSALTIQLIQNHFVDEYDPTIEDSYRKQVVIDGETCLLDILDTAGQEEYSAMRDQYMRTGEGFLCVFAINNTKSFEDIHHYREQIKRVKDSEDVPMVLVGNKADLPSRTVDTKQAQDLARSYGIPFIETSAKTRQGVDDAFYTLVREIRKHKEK

This assay addresses GDP-bound protein (aa 1-169), containing both G12C and C118A amino acid substitutions (Homo sapiens, UniProt P01116, C118A/G12C). The assay can be described thus: Coupled Nucleotide Exchange Assay (SOS-mediated nucleotide exchange, AlphaScreen). The format is biochemical. The conditions noted are these: 2 hours compound pre-incubation. As for the experimental part:
Coupled Nucleotide Exchange Assay: Purified GDP-bound […] protein (aa 1-169), containing both G12C and C118A amino acid substitutions and an N-terminal His-tag, was pre-incubated with a compound dose-response titration for 2 hours in assay buffer (25 mM HEPES pH 7.4, 10 mM MgCl2, and 0.01% Triton X-100). Following compound pre-incubation, purified SOS protein (aa 564-1049) and GTP (Roche 10106399001) were added to the assay wells and incubated for an additional hour. […] The assay plates were then read on a PerkinElmer EnVision Multilabel Reader, using AlphaScreen® technology, and data were analyzed using a 4-parameter logistic model to calculate IC50 values.
As for `C=CC(=O)N[C@@H]1CN(c2snc3c(F)c(-c4cc(O)cc5ccccc45)c(Cl)cc23)[C@@H]1C` (racemic) [Example 1-9, N-(1-(5-chloro-7-fluoro-6-(3-hydroxy-1-naphthalenyl)-2,1-benzothiazol-3-yl)-2-methyl-3-azetidinyl)-2-propenamide], the “Coupled exchange IC50” value worked out at 5.92 µM.
To `C=CC(=O)N1CCN(c2snc3c(F)c(-c4cc(O)cc5ccccc45)c(Cl)cc23)CC1C(N)=O` (racemic) [Example 1-12, 4-(5-chloro-7-fluoro-6-(3-hydroxy-1-naphthalenyl)-2,1-benzothiazol-3-yl)-1-(2-propenoyl)-2-piperazinecarboxamide] belongs 11.8 µM; to `C=CC(=O)N1CCN(c2snc3nc(-c4c(F)cccc4OC)c(Cl)cc23)C(C)C1` (racemic) [Example 2-2, 1-(4-(5-chloro-6-(2-fluoro-6-methoxyphenyl)[1,2]thiazolo[3,4-b]pyridin-3-yl)-3-methyl-1-piperazinyl)-2-propen-1-one], 12.7 µM.
To `C=CC(=O)N1CCN(c2nnc(C(C)c3ccccc3)c3cc(-c4c(O)cccc4F)c(Cl)cc23)CC1` (racemic) [Example 28, 1-(4-(7-chloro-6-(2-fluoro-6-hydroxyphenyl)-4-((1R)-1-phenylethyl)-1-phthalazinyl)-1-piperazinyl)-2-propen-1-one and 1-(4-(7-chloro-6-(2-fluoro-6-hydroxyphenyl)-4-((1S)-1-phenylethyl)-1-phthalazinyl)-1-piperazinyl)-2-propen-1-one] belongs 8.17 µM; to `C=CC(=O)N1CCN(c2snc3nc(-c4c(C)ccc5[nH]ncc45)c(Cl)cc23)C(C)C1` (single isomer, unassigned) [Example 2-6-1, 1-((3S)-4-(5-chloro-6-(5-methyl-1H-indazol-4-yl)[1,2]thiazolo[3,4-b]pyridin-3-yl)-3-methyl-1-piperazinyl)-2-propen-1-one or 1-((3R)-4-(5-chloro-6-(5-methyl-1H-indazol-4-yl)[1,2]thiazolo[3,4-b]pyridin-3-yl)-3-methyl-1-piperazinyl)-2-propen-1-one], 13.0 µM; to `C=CC(=O)N1CCN(c2nnc(OC)c3cc(-c4c(O)cccc4F)c(Cl)cc23)CC1` (single isomer, unassigned) [Example 32, 2-(1-(4-Acryloyl-1-piperazinyl)-7-chloro-4-methoxy-6-phthalazinyl)-3-fluorophenol], 28.6 µM.
The result for `C=CC(=O)N1CCN(c2nnc(OC)c3cc(Cl)c(-c4c(O)cccc4F)cc23)CC1` (single isomer, unassigned) [Example 33, 2-(4-(4-acryloyl-1-piperazinyl)-7-chloro-1-methoxy-6-phthalazinyl)-3-fluorophenol] reads 103 µM; that for `C=CC(=O)N1CCN(c2snc3cc(-c4c(F)cccc4OC)c(Cl)cc23)CC1` [Example 1-5, 1-(4-(5-chloro-6-(2-fluoro-6-methoxyphenyl)-2,1-benzothiazol-3-yl)-1-piperazinyl)-2-propen-1-one], 6.66 µM; that for `C=CC(=O)N1CCN(c2snc3c(F)c(-c4c(OC)ccc5ccccc45)c(Cl)cc23)CC1` [Example 1-13, 1-(4-(5-chloro-7-fluoro-6-(2-methoxy-1-naphthalenyl)-2,1-benzothiazol-3-yl)-1-piperazinyl)-2-propen-1-one], more than 10 µM.
In the case of `C=CC(=O)N1[C@@H]2CC[C@H]1CN(c1snc3c(F)c(-c4cc(O)cc5ccccc45)c(Cl)cc13)C2` [Example 1-17, 1-((1R,5S)-3-(5-chloro-7-fluoro-6-(3-hydroxy-1-naphthalenyl)-2,1-benzothiazol-3-yl)-3,8-diazabicyclo[3.2.1]octan-8-yl)-2-propen-1-one], the “Coupled exchange IC50” value was 63.5 µM.
To `C=CC(=O)N[C@@H]1CCN(c2snc3c(F)c(-c4cc(O)cc5ccccc45)c(Cl)cc23)C1` [Example 1-22, N-((3R)-1-(5-chloro-7-fluoro-6-(3-hydroxy-1-naphthalenyl)-2,1-benzothiazol-3-yl)-3-pyrrolidinyl)-2-propenamide] belongs more than 250 µM.
To `C=CC(=O)N[C@@H]1CCCN(c2snc3c(F)c(-c4cc(O)cc5ccccc45)c(Cl)cc23)C1` [Example 1-23, N-((3R)-1-(5-chloro-7-fluoro-6-(3-hydroxy-1-naphthalenyl)-2,1-benzothiazol-3-yl)-3-piperidinyl)-2-propenamide] belongs more than 250 µM; to `C=CC(=O)N1CCN(c2snc3c(F)c(-c4cccc5ccc(=O)[nH]c45)c(Cl)cc23)CC1` [Example 3-2, 8-(5-chloro-7-fluoro-3-(4-(2-propenoyl)-1-piperazinyl)-2,1-benzothiazol-6-yl)-2(1H)-quinolinone], more than 250 µM; to `C=CC(=O)N1CCN(c2snc3c(F)c(-c4cccc5ccncc45)c(Cl)cc23)CC1` [Example 3-3, 1-(4-(5-chloro-7-fluoro-6-(8-isoquinolinyl)-2,1-benzothiazol-3-yl)-1-piperazinyl)-2-propen-1-one], 11.3 µM.
The result for `C=CC(=O)N1CCN(c2snc3c(F)c(-c4cccc5[nH]c(=O)ccc45)c(Cl)cc23)CC1` [Example 3-4, 5-(5-chloro-7-fluoro-3-(4-(2-propenoyl)-1-piperazinyl)-2,1-benzothiazol-6-yl)-2(1H)-quinolinone] reads more than 250 µM; that for `C=CC(=O)N1CCN(c2snc3c(F)c(-c4ccc(F)cc4F)c(Cl)cc23)CC1` [Example 3-7, 1-(4-(5-chloro-6-(2,4-difluorophenyl)-7-fluoro-2,1-benzothiazol-3-yl)-1-piperazinyl)-2-propen-1-one], 6.98 µM; that for `C=CC(=O)N1CCN(c2snc3c(F)c(-c4cc(NC(C)=O)ccc4C)c(Cl)cc23)CC1` [Example 3-13, N-(3-(5-chloro-7-fluoro-3-(4-(2-propenoyl)-1-piperazinyl)-2,1-benzothiazol-6-yl)-4-methylphenyl)acetamide], 6.49 µM.
As to `C=CC(=O)N1CCN(c2snc3c(F)c(-c4cc(N)ccc4F)c(Cl)cc23)CC1` [Example 3-14, 1-(4-(6-(5-amino-2-fluorophenyl)-5-chloro-7-fluoro-2,1-benzothiazol-3-yl)-1-piperazinyl)-2-propen-1-one], the “Coupled exchange IC50” value was 5.64 µM.
Take `C=CC(=O)N1CCN(c2snc3c(F)c(-c4cc(O)c(Cl)cc4Cl)c(Cl)cc23)CC1` [Example 3-17, 1-(4-(5-chloro-6-(2,4-dichloro-5-hydroxyphenyl)-7-fluoro-2,1-benzothiazol-3-yl)-1-piperazinyl)-2-propen-1-one]: the “Coupled exchange IC50” value worked out at 5.48 µM.
As for `C=CC(=O)N1CCN(c2snc3c(F)c(-c4cnccc4C(C)C)c(Cl)cc23)CC1` [Example 3-21, 1-(4-(5-chloro-7-fluoro-6-(4-(2-propanyl)-3-pyridinyl)-2,1-benzothiazol-3-yl)-1-piperazinyl)-2-propen-1-one], the “Coupled exchange IC50” value came to 32.0 µM.
To `C=CC(=O)N1CCN(c2snc3c(F)c(-c4cc(N)cc(C#N)c4)c(Cl)cc23)CC1` [Example 3-25, 3-amino-5-(5-chloro-7-fluoro-3-(4-(2-propenoyl)-1-piperazmyl)-2,1-benzothiazol-6-yl)benzonitrile] belongs more than 250 µM; to `C=CC(=O)N1CC2(C1)CN(c1snc3c(F)c(Br)c(Cl)cc13)C2` [Example 4-2, 1-(6-(6-bromo-5-chloro-7-fluoro-2,1-benzothiazol-3-yl)-2,6-diazaspiro[3.3]hept-2-yl)-2-propen-1-one], more than 250 µM.
As for `C=CC(=O)N1CC2(C1)CN(c1snc3c(F)c(-c4cc(OC)cc5ccccc45)c(Cl)cc13)C2` [Example 4-3, 1-(6-(5-chloro-7-fluoro-6-(3-methoxy-1-naphthalenyl)-2,1-benzothiazol-3-yl)-2,6-diazaspiro[3,3]heptan-2-yl)-2-propen-1-one], the “Coupled exchange IC50” value is more than 250 µM.
The result for `C=CC(=O)NC1CN(c2snc3c(F)c(Br)c(Cl)cc23)C1` [Example 4-4, N-(1-(6-bromo-5-chloro-7-fluoro-2,1-benzothiazol-3-yl)-3-azetidinyl)-2-propenamide] reads more than 250 µM; that for `C=CC(=O)NC1CN(c2snc3c(F)c(-c4cc(OC)cc5ccccc45)c(Cl)cc23)C1` [Example 4-5, N-(1-(5-chloro-7-fluoro-6-(3-methoxy-1-naphthalenyl)-2,1-benzothiazol-3-yl)-3-azetidinyl)-2-propenamide], more than 250 µM.
The result for `C=CC(=O)N1CC(Nc2snc3c(F)c(Br)c(Cl)cc23)C1` [Example 4-7, 1-(3-((6-bromo-5-chloro-7-fluoro-2,1-benzothiazol-3-yl)amino)-1-azetidinyl)-2-propen-1-one] reads 125 µM; that for `C=CC(=O)N1CCC[C@@H](Nc2snc3c(F)c(Br)c(Cl)cc23)C1` [Example 4-8, 1-((3R)-3-((6-bromo-5-chloro-7-fluoro-2,1-benzothiazol-3-yl)amino)-1-piperidinyl)-2-propen-1-one], 177 µM; that for `C=CC(=O)N1CCC[C@@H](Nc2snc3c(F)c(-c4cc(O)cc5ccccc45)c(Cl)cc23)C1` [Example 4-9, 1-((3R)-3-((5-chloro-7-fluoro-6-(3-hydroxynaphthalen-1-yl)benzo[c]isothiazol-3-yl)amino)piperidin-1-yl)prop-2-en-1-one], more than 250 µM.
In the case of `C=CC(=O)NC1(C)CN(c2snc3c(F)c(-c4cc(O)cc5ccccc45)c(Cl)cc23)C1` [Example 5-2, N-(1-(5-chloro-7-fluoro-6-(3-hydroxy-1-naphthalenyl)-2,1-benzothiazol-3yl)-3-methyl-3-azetidinyl)-2-propenamide], the “Coupled exchange IC50” value worked out at 14.2 µM.
